The test deals with T1, WT human SLACK (Homo sapiens, UniProt Q5JUK3).
T1 construct: host or cells: CHO-K1
T1 sequence (Q5JUK3 1-1235 isoform Q5JUK3-3): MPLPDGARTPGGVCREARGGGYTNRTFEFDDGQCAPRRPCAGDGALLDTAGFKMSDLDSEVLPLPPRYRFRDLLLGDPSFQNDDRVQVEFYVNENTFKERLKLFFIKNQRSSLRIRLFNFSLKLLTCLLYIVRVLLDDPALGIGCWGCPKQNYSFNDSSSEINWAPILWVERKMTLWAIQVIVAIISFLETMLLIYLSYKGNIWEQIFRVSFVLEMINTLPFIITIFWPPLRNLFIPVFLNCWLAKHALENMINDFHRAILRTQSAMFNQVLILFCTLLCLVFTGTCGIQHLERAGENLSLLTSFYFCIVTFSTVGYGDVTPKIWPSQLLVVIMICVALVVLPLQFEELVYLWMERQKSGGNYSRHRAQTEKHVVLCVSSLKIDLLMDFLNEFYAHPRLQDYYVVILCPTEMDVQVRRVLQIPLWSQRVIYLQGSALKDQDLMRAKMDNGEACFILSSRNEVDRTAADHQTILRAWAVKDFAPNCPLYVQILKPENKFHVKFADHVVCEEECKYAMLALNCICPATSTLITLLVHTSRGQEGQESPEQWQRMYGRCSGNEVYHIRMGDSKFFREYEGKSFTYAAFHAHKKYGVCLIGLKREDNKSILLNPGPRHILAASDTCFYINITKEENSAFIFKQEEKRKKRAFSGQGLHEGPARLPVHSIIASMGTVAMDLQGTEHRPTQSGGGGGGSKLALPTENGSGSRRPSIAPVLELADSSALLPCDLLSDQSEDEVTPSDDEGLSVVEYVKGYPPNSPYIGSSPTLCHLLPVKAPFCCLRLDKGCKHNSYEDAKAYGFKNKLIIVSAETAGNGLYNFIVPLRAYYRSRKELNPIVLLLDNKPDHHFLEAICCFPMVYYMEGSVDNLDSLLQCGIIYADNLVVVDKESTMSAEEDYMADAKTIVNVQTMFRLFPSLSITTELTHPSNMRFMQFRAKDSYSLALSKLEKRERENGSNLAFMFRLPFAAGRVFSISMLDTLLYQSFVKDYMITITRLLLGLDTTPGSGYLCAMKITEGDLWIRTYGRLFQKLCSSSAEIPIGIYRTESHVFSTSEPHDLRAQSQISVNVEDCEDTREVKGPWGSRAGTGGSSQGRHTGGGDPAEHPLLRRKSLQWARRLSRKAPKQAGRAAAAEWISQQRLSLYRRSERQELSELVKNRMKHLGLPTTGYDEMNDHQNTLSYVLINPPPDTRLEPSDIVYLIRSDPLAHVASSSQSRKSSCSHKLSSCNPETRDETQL
As to the kind of experiment: Whole-cell automated patch clamp (APC) in CHO-K1 cells stably expressing WT human SLACK. The test is classed as cell-based. Particulars: for IC50 / WT SLACK inhibition, result in words: APC; for IC50: CHO-K1 cells stably expressing WT human SLACK, averages (n ≥ 3); for SLACK Imax: maximum inhibition at 30 µM test compound standardized to VU0606170 (set at 100%), WT human SLACK; for WT SLACK inhibition, result in words: concentrations 0.125 to 30 µM; for Fold less potent than hit 10 (SLACK inhibition): ratio of WT SLACK APC IC50 to hit 10. The method, then:
Using concentrations ranging from 0.125 to 30 µM in half-log steps, a concentration–response relationship was generated for each new analog using our APC assay in CHO-K1 cells stably expressing WT SLACK. A minimum of three cells, i.e., replicates, were collected per concentration for each analog.
Automated patch clamp recording was performed with a SyncroPatch 768 PE system (Nanion, Munich, Germany) as previously described. Whole-cell recordings were performed at room temperature. Cells were harvested by first washing with PBS without Mg^2+ or Ca^2+ (Gibco, Billings, MT, USA) to remove cell culture medium, followed by dissociation with TryPLE (Gibco, Billings, MT, USA). Cells were then resuspended and diluted to 200,000 cells/mL in external solution. External solution contained 105 mM NaCl, 4 mM KCl, 1 mM MgCl2, 5 mM CaCl2, 10 mM HEPES, 40 mM N-Methyl-D-glucamine chloride, titrated to pH 7.4 with NaOH and osmolarity of 300 mOsm/kg; internal solution contained 70 mM NaCl, 70 mM KF, 10 mM KCl, 5 mM EGTA, 5mM HEPES, titrated to a pH 7.2 with KOH and osmolarity of 295 mOsm/kg.
The APC protocol was set as following: Cells were held at […] −80 mV for 100 ms, then a ramp protocol was performed from −100 mV to 80 mV at 0.4 mV/ms, hold the cell at −80 mV for another 100 ms, then steps were performed at −20 mV, 0 mV, +20 mV, +40 mV, and +60 mV for 100 ms of each step. Whole-cell currents were measured at 0 mV and normalized to current after external buffer addition.

In general, IC50 refers to the concentration that inhibits the measured activity by half. Lower therefore signals greater potency in that assay. `CC(C)(Oc1ccc(Cl)cc1)C(=O)Nc1cnc(Oc2ccccc2F)nc1` [Analog 10] displayed an IC50 of 1400 nM.

For `CC(C)(Oc1ccc(Cl)cc1)C(=O)Nc1cnc(Oc2ccccc2)nc1` [Analog 15], 1700 nM corresponded to half-maximal inhibition (IC50).

Turning to `CC(C)(Oc1ccc(Cl)cc1)C(=O)Nc1cnc(Oc2cccc(F)c2)nc1` [Analog 16], the IC50 was determined as 2100 nM.

`CC(C)(Oc1ccc(Cl)cc1)C(=O)Nc1cnc(Oc2ccc(F)cc2)nc1` [Analog 17]: the IC50 was determined as 1800 nM and the “SLACK Imax” value is given as 102%.

Take `CC(C)(Oc1ccc(Cl)cc1)C(=O)Nc1cnc(Oc2ccccc2Cl)nc1` [Analog 18]: it took 1200 nM to reach half-maximal inhibition (IC50) and the “SLACK Imax” value is reported as 97%.

On to `CC(C)(Oc1ccc(Cl)cc1)C(=O)Nc1cnc(Oc2cccc(Cl)c2)nc1` [Analog 19], for which the 50% inhibitory concentration (IC50) amounted to 1500 nM.

As to `CC(C)(Oc1ccc(Cl)cc1)C(=O)Nc1cnc(Oc2ccc(Cl)cc2)nc1` [Analog 20], the IC50 was 1200 nM.

`Cc1ccccc1Oc1ncc(NC(=O)C(C)(C)Oc2ccc(Cl)cc2)cn1` [Analog 21] showed an IC50 of 2900 nM.

For `Cc1cccc(Oc2ncc(NC(=O)C(C)(C)Oc3ccc(Cl)cc3)cn2)c1` [Analog 22], the midpoint of inhibition, the IC50, lay at 2300 nM.

Turning to `Cc1ccc(Oc2ncc(NC(=O)C(C)(C)Oc3ccc(Cl)cc3)cn2)cc1` [Analog 23], it took 1700 nM to reach half-maximal inhibition (IC50).

The compound `CC(C)(Oc1ccc(Cl)cc1)C(=O)Nc1cnc(Oc2ccccc2C(F)(F)F)nc1` [Analog 24] gave an IC50 of 1700 nM.

Regarding `CC(C)(Oc1ccc(Cl)cc1)C(=O)Nc1cnc(Oc2cccc(C(F)(F)F)c2)nc1` [Analog 25], the IC50 is 1900 nM and the “SLACK Imax” value came out at 101%.

In turn, `CC(C)(Oc1ccc(Cl)cc1)C(=O)Nc1cnc(Oc2ccc(C(F)(F)F)cc2)nc1` [Analog 26] gave an IC50 of 1000 nM.

With `COc1ccccc1Oc1ncc(NC(=O)C(C)(C)Oc2ccc(Cl)cc2)cn1` [Analog 27], the half-inhibitory concentration (IC50) came to 1500 nM and the “SLACK Imax” value is 101%.

`COc1cccc(Oc2ncc(NC(=O)C(C)(C)Oc3ccc(Cl)cc3)cn2)c1` [Analog 28]: it took 2400 nM to reach half-maximal inhibition (IC50) and the “SLACK Imax” value stood at 101%.

Compound `COc1ccc(Oc2ncc(NC(=O)C(C)(C)Oc3ccc(Cl)cc3)cn2)cc1` [Analog 29] displayed a half-maximal inhibitory concentration (IC50) of 1800 nM.

Regarding `CC(C)(Oc1ccc(Cl)cc1)C(=O)Nc1cnc(Oc2ccccc2OC(F)(F)F)nc1` [Analog 30], the IC50 turned out to be 1400 nM.

In turn, `CC(C)(Oc1ccc(Cl)cc1)C(=O)Nc1cnc(Oc2ccc(OC(F)(F)F)cc2)nc1` [Analog 32] registered an IC50 of 1900 nM.

Consider `CC(C)(Oc1ccc(Cl)cc1)C(=O)Nc1cnc(Oc2ccccc2C#N)nc1` [Analog 33], for which the IC50 is 940 nM.

`CC(C)(Oc1ccc(Cl)cc1)C(=O)Nc1cnc(Oc2cccc(C#N)c2)nc1` [Analog 34] returned a concentration for half-maximal inhibition (IC50) of 1700 nM.

`CC(C)(Oc1ccc(Cl)cc1)C(=O)Nc1cnc(Oc2ccc(C#N)cc2)nc1` [Analog 35]: the IC50 was determined as 1100 nM.

Turning to `CC(C)(Oc1ccc(Cl)cc1)C(=O)Nc1cnc(Oc2ccc(S(C)(=O)=O)cc2)nc1` [Analog 36], the IC50 came to 1100 nM.

As to `CC(C)(Oc1ccc(Cl)cc1)C(=O)Nc1cnc(Oc2ccc(C(N)=O)cc2)nc1` [Analog 37], the IC50 was above 10000 nM; the “WT SLACK inhibition, result in words” value was “only a weak inhibitor”; the “SLACK Imax” value is on record as 110%.

Regarding `CC(C)(Oc1ccc(Cl)cc1)C(=O)Nc1cnc(Oc2ccc(F)cc2F)nc1` [Analog 38], the IC50 turned out to be 1000 nM and the “SLACK Imax” value came to 101%.

For the compound `CC(C)(Oc1ccc(Cl)cc1)C(=O)Nc1cnc(Oc2cc(F)ccc2F)nc1` [Analog 39], it took 1300 nM to reach half-maximal inhibition (IC50) and the “SLACK Imax” value was 101%.

In turn, `CC(C)(Oc1ccc(Cl)cc1)C(=O)Nc1cnc(Oc2ccc(F)c(F)c2)nc1` [Analog 41] registered an IC50 of 1700 nM.

For `CC(C)(Oc1ccc(Cl)cc1)C(=O)Nc1cnc(Oc2cc(F)cc(F)c2)nc1` [Analog 42], the IC50 turned out to be 1400 nM.

As to `CC(C)(Oc1ccc(Cl)cc1)C(=O)Nc1cnc(Oc2c(F)cccc2Cl)nc1` [Analog 43], it took 580 nM to reach half-maximal inhibition (IC50) and the “SLACK Imax” value worked out at 91%.

For `CC(C)(Oc1ccccc1)C(=O)Nc1cnc(Oc2ccccc2F)nc1` [Analog 44], the IC50 is above 10000 nM; the “WT SLACK inhibition, result in words” value is “only weakly active”; the “SLACK Imax” value was found to be 66%.

As for `CC(C)(Oc1ccccc1F)C(=O)Nc1cnc(Oc2ccccc2F)nc1` [Analog 45], the IC50 is above 10000 nM; the “WT SLACK inhibition, result in words” value is “only weak inhibitors”; the “SLACK Imax” value is given as 25%.

Turning to `Cc1ccccc1OC(C)(C)C(=O)Nc1cnc(Oc2ccccc2F)nc1` [Analog 50], the IC50 turned out to be 2900 nM and the “Fold less potent than hit 10 (SLACK inhibition)” value is given as “approximately 2 fold”.

For the compound `Cc1cccc(OC(C)(C)C(=O)Nc2cnc(Oc3ccccc3F)nc2)c1` [Analog 51], the “WT SLACK inhibition, result in words” value is “inactive up to the top concentration of 30 µM”.

Take `Cc1ccc(OC(C)(C)C(=O)Nc2cnc(Oc3ccccc3F)nc2)cc1` [Analog 52]: the IC50 is 7100 nM and the “SLACK Imax” value is listed as 97%.

Regarding `CC(C)(Oc1ccccc1C(F)(F)F)C(=O)Nc1cnc(Oc2ccccc2F)nc1` [Analog 53], the “WT SLACK inhibition, result in words” value was “inactive up to the top concentration of 30 µM”.

In the case of `CC(C)(Oc1cccc(C(F)(F)F)c1)C(=O)Nc1cnc(Oc2ccccc2F)nc1` [Analog 54], 3700 nM corresponded to half-maximal inhibition (IC50) and the “SLACK Imax” value worked out at 99%.

`CC(C)(Oc1ccc(C(F)(F)F)cc1)C(=O)Nc1cnc(Oc2ccccc2F)nc1` [Analog 55]: inhibition was half-maximal at 2800 nM (IC50), the “SLACK Imax” value worked out at 101% and the “Fold less potent than hit 10 (SLACK inhibition)” value is given as “approximately 2 fold”.

Turning to `CC(C)(Oc1ccccc1OC(F)(F)F)C(=O)Nc1cnc(Oc2ccccc2F)nc1` [Analog 56], the “WT SLACK inhibition, result in words” value is “inactive up to the top concentration of 30 µM”.

On to `CC(C)(Oc1cccc(OC(F)(F)F)c1)C(=O)Nc1cnc(Oc2ccccc2F)nc1` [Analog 57], for which 4600 nM corresponded to half-maximal inhibition (IC50) and the “SLACK Imax” value is 98%.

For the compound `CC(C)(Oc1ccc(OC(F)(F)F)cc1)C(=O)Nc1cnc(Oc2ccccc2F)nc1` [Analog 58], the IC50 is above 10000 nM; the “WT SLACK inhibition, result in words” value was “only weak inhibitors”; the “SLACK Imax” value worked out at 104%.

As to `CC(C)(Oc1ccc(C#N)cc1)C(=O)Nc1cnc(Oc2ccccc2F)nc1` [Analog 59], the IC50 is above 10000 nM; the “WT SLACK inhibition, result in words” value was “only weak inhibitors”; the “SLACK Imax” value came to 109%.

In the case of `CC(C)(Oc1ccc(S(C)(=O)=O)cc1)C(=O)Nc1cnc(Oc2ccccc2F)nc1` [Analog 60], the “WT SLACK inhibition, result in words” value was “inactive up to the top concentration of 30 µM”.

Take `CC(C)(Oc1ccc(C(N)=O)cc1)C(=O)Nc1cnc(Oc2ccccc2F)nc1` [Analog 61]: the “WT SLACK inhibition, result in words” value was “inactive up to the top concentration of 30 µM”.

Source of the values: article PMC11643494, “Structure–Activity Relationship Studies in a Series of 2-Aryloxy-N-(pyrimidin-5-yl)acetamide Inhibitors of SLACK Potassium Channels” (Molecules, 2024).
